Source: patent publication US12195482B1 (Arcus Biosciences, Inc., priority 2022, dated 2025)

Experiments:
Axl = molecular target: T1, Axl (Homo sapiens, UniProt P30530); experiment: Biochemical potency, HTRF KinEASE-TK kinase assay; design: purchased Invitrogen; conditions: 5 nM AXL, 700 μM ATP
T1 sequence (P30530 26-894): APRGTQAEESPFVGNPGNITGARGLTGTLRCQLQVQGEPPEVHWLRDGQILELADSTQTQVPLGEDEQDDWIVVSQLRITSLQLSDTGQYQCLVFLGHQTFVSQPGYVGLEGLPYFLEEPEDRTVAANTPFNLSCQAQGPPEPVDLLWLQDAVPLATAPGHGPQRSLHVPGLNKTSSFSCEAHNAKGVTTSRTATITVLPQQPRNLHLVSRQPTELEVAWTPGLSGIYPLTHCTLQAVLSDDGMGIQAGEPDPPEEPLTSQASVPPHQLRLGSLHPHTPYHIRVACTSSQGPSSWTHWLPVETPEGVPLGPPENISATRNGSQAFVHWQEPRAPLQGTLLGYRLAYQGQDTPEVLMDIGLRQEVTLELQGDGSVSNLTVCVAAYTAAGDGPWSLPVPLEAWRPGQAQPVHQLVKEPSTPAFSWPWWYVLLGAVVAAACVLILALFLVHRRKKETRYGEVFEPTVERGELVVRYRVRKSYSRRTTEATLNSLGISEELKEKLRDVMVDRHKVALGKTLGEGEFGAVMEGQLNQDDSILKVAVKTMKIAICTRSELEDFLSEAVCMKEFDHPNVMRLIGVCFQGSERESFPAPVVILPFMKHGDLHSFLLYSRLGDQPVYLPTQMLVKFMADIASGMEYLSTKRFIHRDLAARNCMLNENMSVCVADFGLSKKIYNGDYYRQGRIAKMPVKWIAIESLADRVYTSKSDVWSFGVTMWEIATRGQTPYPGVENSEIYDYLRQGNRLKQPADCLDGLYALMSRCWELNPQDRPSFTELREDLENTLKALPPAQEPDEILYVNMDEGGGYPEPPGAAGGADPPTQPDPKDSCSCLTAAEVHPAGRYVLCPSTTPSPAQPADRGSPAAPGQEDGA
Method in brief: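 Phosphorylation of a biotinylated tyrosine-kinase peptide (800 nM) by AXL (5 nM) or TYRO3/MER (1 nM) is measured at 700 µM ATP after 2 h at room temperature, following 1 h enzyme–compound preincubation. Signal is the time-resolved FRET ratio, converted to percent activity.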

p-AXL = molecular target: T2, p-AXL (Homo sapiens, UniProt P30530); experiment: Axl phosphorylation inhibition ELISA in HEK293T cells transfected with NanoLuc-tagged AXL; type: cell-based; conditions: 1 h compound incubation, media (OptiMEM)
T2 construct: expressed in transfected cells; host or cells: HEK293T
T2 sequence (P30530 26-894): T1 sequence (P30530 26-894)
Method in brief: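 HEK293T cells transiently transfected one day earlier with NanoLuc-tagged AXL were exposed to 22-point 2-fold compound dilutions for 1 h at 37° C (70,000 cells/well), then lysed. Lysates captured on anti-phospho-tyrosine coated plates for 2 h; bound p-AXL read by NanoLuc luminescence; IC50 from 4-parameter logistic fit.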

Cn1ccnc1-c1ccc(-c2n[nH]c3ncc(-c4ccc5c(c4)CC[C@@H](N4C6COCC4C6)CC5)cc23)cc1 [Example 111, 6-[(7S)-2-{3-[4-(1-Methyl-1H-imidazol-2-yl)phenyl]-1H-pyrazolo[3,4-b]pyridin-5-yl}-6,7,8,9-tetrahydro-5H-benzo[7]annulen-7-yl]-3-oxa-6-azabicyclo[3.1.1]heptane]
IC50 (Axl): < 100 nM
IC50 (p-AXL): < 100 nM

CCOc1cccnc1-c1ccc(-c2n[nH]c3ncc(-c4ccc5c(c4)CC[C@@H](N4C6COCC4C6)CC5)cc23)cc1 [Example 181, 6-[(7S)-2-{3-[4-(3-Ethoxypyridin-2-yl)phenyl]-1H-pyrazolo[3,4-b]pyridin-5-yl}-6,7,8,9-tetrahydro-5H-benzo[7]annulen-7-yl]-3-oxa-6-azabicyclo[3.1.1]heptane]
IC50 (Axl): < 100 nM
IC50 (p-AXL): 100 to 1000 nM

CS(=O)(=O)c1cccnc1-c1ccc(-c2n[nH]c3ncc(-c4ccc5c(c4)CC[C@@H](N4C6COCC4C6)CC5)cc23)cc1 [Example 101, 6-[(7S)-2-{3-[4-(3-Methanesulfonylpyridin-2-yl)phenyl]-1H-pyrazolo[3,4-b]pyridin-5-yl}-6,7,8,9-tetrahydro-5H-benzo[7]annulen-7-yl]-3-oxa-6-azabicyclo[3.1.1]heptane]
IC50 (Axl): < 100 nM
IC50 (p-AXL): < 100 nM

CC(C)(O)c1ccccc1-c1ccc(-c2c[nH]c3ncc(-c4ccc5c(c4)CC[C@@H](N4C6COCC4C6)CC5)cc23)cn1 [Example 114, 2-[2-(5-{5-[(7S)-7-{3-Oxa-6-azabicyclo[3.1.1]heptan-6-yl}-6,7,8,9-tetrahydro-5H-benzo[7]annulen-2-yl]-1H-pyrrolo[2,3-b]pyridin-3-yl}pyridin-2-yl)phenyl]propan-2-ol]
IC50 (Axl): < 100 nM
IC50 (p-AXL): < 100 nM

O=C1OCCN1c1cccnc1-c1ccc(-c2n[nH]c3ncc(-c4ccc5c(c4)CC[C@@H](N4C6COCC4C6)CC5)cc23)cc1 [Example 121, 3-[2-(4-{5-[(7S)-7-{3-Oxa-6-azabicyclo[3.1.1]heptan-6-yl}-6,7,8,9-tetrahydro-5H-benzo[7]annulen-2-yl]-1H-pyrazolo[3,4-b]pyridin-3-yl}phenyl)pyridin-3-yl]-1,3-oxazolidin-2-one]
IC50 (Axl): < 100 nM
IC50 (p-AXL): < 100 nM

CN(C)C(=O)c1cccnc1-c1ccc(-c2n[nH]c3ncc(-c4ccc5c(c4)CC[C@@H](N4C6COCC4C6)CC5)cc23)cc1 [Example 167, N,N-Dimethyl-2-(4-{5-[(7S)-7-{3-oxa-6-azabicyclo[3.1.1]heptan-6-yl}-6,7,8,9-tetrahydro-5H-benzo[7]annulen-2-yl]-1H-pyrazolo[3,4-b]pyridin-3-yl}phenyl)pyridine-3-carboxamide]
IC50 (Axl): < 100 nM
IC50 (p-AXL): < 100 nM
